Experimental data taken from patent publication US8835653B2, “Chlorothiophene-isoxazoles as inhibitors of coagulation factors Xa and thrombin” (Sanofi, priority 2008, dated 2014).

Assays:
human thrombin = target: T1, human thrombin (Homo sapiens, UniProt P00734); test: Chromogenic assay for thrombin inhibition; type: biochemical; settings: chromogenic substrate S-2366 200 μM; Ki from IC50 by Cheng Prusoff formula, mean of duplicates
T1 construct: conversion of prothrombin to thrombin, the final enzyme in the coagulation cascade; purchased Behring LOT.-No. 881001 (a lot number; no catalogue number given)
Method: (§1) The ability of the compounds of the formulae I or Ia to inhibit thrombin or factor Xa or other enzymes like factor VIIa, plasmin, or trypsin can be assessed by determining the concentration of the compound of the formulae I or Ia that inhibits enzyme activity by 50%, i.e. the 1050 value, which was related to the inhibition constant Ki. Purified enzymes were used in chromogenic assays. The concentration of inhibitor that causes a 50% decrease in the rate of substrate hydrolysis was determined by linear regression after plotting the relative rates of hydrolysis (compared to the uninhibited control) versus the log of the concentration of the compound of formulae I or Ia. For calculating the inhibition constant Ki, the 1050 value was corrected for competition with substrate using the formula Ki=IC50/{1+(substrate concentration/Km)} wherein Km is the Michaelis-Menten constant (Chen and Prusoff, Biochem. Pharmacol. 22 (1973) 3099-3108). Measurement of F Xa and Thrombin Inhibition:
(§2) The claimed substances were tested for F Xa and thrombin inhibition with a chromogenic assay. 8 μl DMSO solution of the compound, 72 μL assay buffer (50 mM TRIS, 150 mM NaCl, 0.1% BSA, pH 7.8) and 20 μL enzyme (human coagulation factor Xa: Haemochrom Diag. Cat. Nr. HFXa, final concentration […]; human thrombin Behring: LOT.-No. 881001) were mixed and incubated for 15 minutes at room temperature in a 96 well microtiter plate. The enzyme reaction was started with 100 μL substrate (F Xa: S-2765, Chromogenix/Haemochrom Cat. Nr. 41249; thrombin: S-2366, Chromogenix/Haemochrom Cat. Nr. 41222 both in a final concentration of 200 μM). The time course of the reaction was monitored at 405 nm in a microtiter plate reader (SpectraMax plus 384; Molecular Devices Inc.) for 15 minutes.
(§3) The Ki was calculated from the mean of duplicates from a dilution series of the compound by the reader according to the Cheng Prusoff formula Ki=IC50/(1+(S/Km).
(§4) The results (inhibition constants Ki Thrombin and FXa in mikro M [μM]) for inhibition of thrombin and factor Xa are shown in Table 1.

[1] = target: T2, human coagulation factor Xa (Homo sapiens, UniProt P00742); test: Chromogenic assay for F Xa inhibition; type: biochemical; settings: chromogenic substrate S-2765 200 μM; Ki from IC50 by Cheng Prusoff formula, mean of duplicates
T2 construct: purchased Haemochrom Diag; HFXa
T2 sequence (P00742 235-488 limits assumed): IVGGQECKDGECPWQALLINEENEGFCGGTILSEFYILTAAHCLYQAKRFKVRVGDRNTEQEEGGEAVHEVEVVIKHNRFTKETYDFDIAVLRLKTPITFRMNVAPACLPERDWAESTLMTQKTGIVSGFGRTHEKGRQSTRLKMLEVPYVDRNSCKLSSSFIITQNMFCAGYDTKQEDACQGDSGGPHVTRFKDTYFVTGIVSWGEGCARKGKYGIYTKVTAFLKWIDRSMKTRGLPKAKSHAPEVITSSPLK
T2 sequence (P00742 41-179 limits assumed): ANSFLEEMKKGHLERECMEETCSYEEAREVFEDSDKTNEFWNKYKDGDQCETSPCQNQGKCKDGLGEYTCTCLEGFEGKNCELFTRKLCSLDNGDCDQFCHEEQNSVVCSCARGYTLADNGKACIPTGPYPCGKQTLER
Method: as §1, §2, §3, §4

| Structure (SMILES) | Ki (human thrombin) [nM] | Ki [1] [nM] |
| --- | --- | --- |
| CCc1c(N2CCOCC2=O)cccc1S(=O)(=O)N[C@@H](Cc1cc(-c2ccc(Cl)s2)on1)C(=O)N1CCCCCC1 [Example 1, N-{(S)-2-Azepan-1-yl-1-[5-(5-chloro-thiophen-2-yl)-isoxazol-3-ylmethyl]-2-oxo-ethyl}-2-ethyl-3-(3-oxo-morpholin-4-yl)-benzenesulfonamide] | 0.35 | 13 |
| O=C([C@H](Cc1cc(-c2ccc(Cl)s2)on1)NS(=O)(=O)c1cccc(N2CCOCC2=O)c1Cl)N1CCCCCC1 [Example 2, N-{(S)-2-Azepan-1-yl-1-[5-(5-chloro-thiophen-2-yl)-isoxazol-3-ylmethyl]-2-oxo-ethyl}-2-chloro-3-(3-oxo-morpholin-4-yl)-benzenesulfonamide] | 7 | 83 |
| COc1c(N2CCCCC2=O)cc(F)cc1S(=O)(=O)N[C@@H](Cc1cc(-c2ccc(Cl)s2)on1)C(=O)NCC1CC1 [Example 3, (S)-3-[5-(5-Chloro-thiophen-2-yl)-isoxazol-3-yl]-N-cyclopropylmethyl-2-[5-fluoro-2-methoxy-3-(2-oxo-piperidin-1-yl)-benzenesulfonylamino]-propionamide] | 268 | 904 |
| COc1c(N2CCCCC2=O)cc(F)cc1S(=O)(=O)N[C@@H](Cc1cc(-c2ccc(Cl)s2)on1)C(=O)N1CCN(C2CC2)CC1 [Example 4, N—[(S)-1-[5-(5-Chloro-thiophen-2-yl)-isoxazol-3-ylmethyl]-2-(4-cyclopropyl-piperazin-1-yl)-2-oxo-ethyl]-5-fluoro-2-methoxy-3-(2-oxo-piperidin-1-yl)-benzenesulfonamide trifluoro acetate] | 29 | 6 |
| O=C([C@H](Cc1cc(-c2ccc(Cl)s2)on1)NS(=O)(=O)c1cccc(N2CCCCC2=O)c1OC(F)F)N1CCN(C2CC2)CC1 [Example 5, N—[(S)-1-[5-(5-Chloro-thiophen-2-yl)-isoxazol-3-ylmethyl]-2-(4-cyclopropyl-piperazin-1-yl)-2-oxo-ethyl]-2-difluoromethoxy-3-(2-oxo-piperidin-1-yl)-benzenesulfonamide trifluoro acetate] | 94 | 33 |
| Cc1c(N2CCCC2=O)cccc1S(=O)(=O)N[C@@H](Cc1cc(-c2ccc(Cl)s2)on1)C(=O)N1CCN(CC(F)(F)F)CC1 [Example 6, N-{(S)-1-[5-(5-Chloro-thiophen-2-yl)-isoxazol-3-ylmethyl]-2-oxo-2-[4-(2,2,2-trifluoro-ethyl)-piperazin-1-yl]-ethyl}-2-methyl-3-(2-oxo-pyrrolidin-1-yl)-benzenesulfonamide trifluoro acetate] | 14 | 0.72 |
| Cc1c(N2CCCC2=O)cccc1S(=O)(=O)N[C@@H](Cc1cc(-c2ccc(Cl)s2)on1)C(=O)N1CCNC(C(F)(F)F)C1 (stereo partly drawn) [Example 7, N—[(S)-1-[5-(5-Chloro-thiophen-2-yl)-isoxazol-3-ylmethyl]-2-oxo-2-(3-trifluoromethyl-piperazin-1-yl)-ethyl]-2-methyl-3-(2-oxo-pyrrolidin-1-yl)-benzenesulfonamide trifluoro acetate] | 0.79 | 0.44 |
